Assay results as given in patent publication US8980848B2, “Flavonoid dimers and their use” (The Hong Kong Polytechnic University, priority 2010, dated 2015).
Like-named read-outs stand apart in the source and are kept apart here. One block for each molecule: values may come before it.

How the values were obtained:
[1] = Tumor cell line cytotoxicity of flavonoid dimers, LCC6MDR; format: cell-based, human; settings: human, LCC6MDR cells, IC50 of compound alone
In short: (§1)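 LCC6, LCC6MDR and L929 cells seeded at 1×10^4 cells/well and exposed to graded doses of flavonoid dimers. Incubation 72 hrs at 37° C., 5% CO2. Read-out: % survivors.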

[2] = Tumor cell line cytotoxicity of flavonoid dimers, LCC6; format: cell-based, human; settings: human, LCC6 cells, IC50 of compound alone
In short: as §1

[3] = Cytotoxicity of flavonoid dimers, L929 mouse fibroblast; format: cell-based; settings: mouse, L929 fibroblast cells, IC50 of compound alone, 72 hrs, mouse fibroblast
In short: as §1

[4] = Cytotoxicity over LCC6, LCC6MDR and L929 cell lines; format: cell-based, human, mouse; settings: human, cancer lines LCC6, LCC6MDR and/or L929
Experimental: (b) Tumor Cell Line Cytotoxicity. The tumor cytotoxicity assays of flavonoid dimers were performed against LCC6, LCC6MDR and L929 cell lines. The cells were grown in supplemented DMEM media in an atmosphere of 95% air and 5% CO2 at 37° C. In brief, LCC6, LCC6MDR and L929 cells were seeded into 96-well flat bottom microtiter plate at 1×10^4 cells per well in a final volume of 100 μL media, respectively. A graded dose of flavonoid dimers was added into wells. The plate was incubated at 37° C. for 72 hrs at the atmosphere 5% CO2 in the air. The % of survivors was determined.

[5] = tested on: LdAG83 promastigotes (wild type); assay: In vitro anti-promastigote activity, LdAG83; format: cell-based, Leishmania donovani; settings: read-out: Anti-promastigotes activity (IC50, μM) LdAG83
Experimental: (§2) Cell Lines and Cell Culture. Promastigotes of Leishmania donovani (wild type LdAG83, pentamidine-resistant LdAG83-PentR50, and SSG-resistant Ld39) and Leishmania major [MHOM/IL/67/JERICHO II (Lm50122), from ATCC] were used in this study.
(§3) In Vitro Anti-Promastigote Activity. The viability of promastigotes was determined by the Cell Titer 96° Aqueous Assay (Promega) that employs a tetrazolium compound (MTS, 2-(4,5-Dimethylthiazol-2-yl-)-5-[3-(carboxymethoxy)phenyl]-2-(4-sulfophenyl)-2H-tetrazolium) and electron coupling reagent, phenazine methosulfate (PMS).^7 Promastigotes were seeded into 96-well flat bottom microtiter plate at 1×10^5 cells per well in a final volume of 100 μL medium and incubated with a series concentration of synthetic flavonoid dimers or known antileishmanials. The parasites were incubated at 27° C. for 72 hrs. Fresh solution of 2 mg/mL MTS and 0.92 mg/mL PMS were prepared in a ratio of 20:1 (MTS:PMS). After 72 hrs incubation, 10 μL of MTS:PMS mixture was added into each well of microtiter plate. The plate was then incubated at 27° C. for 4 hrs for color development. After 4 hrs incubation, the OD values were determined at 490 nm using automatic microtiter plate reader (Bio-Rad).

[6] = tested on: Ld39 promastigotes (SSG-resistant); assay: In vitro anti-promastigote activity, Ld39; format: cell-based, Leishmania donovani; settings: read-out: Anti-promastigotes activity (IC50, μM) Ld39
Experimental: as §2, §3

[7] = tested on: LdAG83PentR50 promastigotes (pentamidine-resistant); assay: microbe, parasite or virus in culture; format: cell-based, Leishmania donovani; settings: 3 days at 27° C., MTS; read-out: Anti-promastigotes activity (IC50, μM) LdAG83PentR50
Experimental: as §2
No pentamidine or sodium stibogluconate was added to the L. donovani wild type (LdAG83) and L. major wild type (Lm50122). The mouse macrophage cell line, Raw264.7, was used for the determination of the relative toxicity of the compounds of the invention. […] They were maintained at 37° C. in a humidified atmosphere with 5% CO2. The cells were split constantly after a confluent monolayer has been formed. To split cells, the plate was washed briefly with PBS, treated with 0.05% trypsin-EDTA and harvested by centrifugation.
as §3

[8] = tested on: Lm50122 promastigotes; assay: In vitro anti-promastigote activity, Lm50122; format: cell-based, Leishmania major; settings: read-out: Anti-promastigotes activity (IC50, μM) Lm50122
Experimental: as §2, §3

[9] = tested on: Raw264.7 cells; assay: Cytotoxicity, mouse macrophage Raw264.7; format: cell-based
Experimental: (§4) (a) Mouse Macrophage Raw 264.7 and Primary Mouse PEM Cells. The cytotoxicity assay of reference antileishmanial compounds and the compounds of this invention was performed against mouse macrophage cell line, Raw 264.7 and primary mouse PEM cells in order to calculate the therapeutic index (IC50 value for cytotoxicity of the compounds divided by IC50 value for antileishmanial activity of the compounds). The cells were grown in supplemented DMEM media in an atmosphere of 95% air with 5% CO2 at 37° C. In brief, Raw264.7 cells and PEM cells were seeded into 96-well flat bottom microtiter plate at 1×10^4cells and 2×10^4 cells per well in a final volume of 100 μL media, respectively. A graded dose of flavonoid dimers or antileishmanials was added into wells. The plate was incubated at 37° C. for 72 hrs at the atmosphere 5% CO2 in the air. The % of survivors was determined.

[10] = tested on: PEM cells; assay: Cytotoxicity, primary mouse peritoneal elicited macrophage (PEM); format: cell-based; settings: cytotoxicity, primary mouse macrophage, 72 hrs
Experimental: as §4

[11] = tested on: Ld39 amastigotes; assay: In vitro anti-amastigote activity, Ld39 amastigotes in mouse PEM; settings: read-out: IC50 against Ld39 amastigotes
Experimental: Peritoneal elicited macrophages (PEM) from mouse were obtained as previously described. A round cover slip (12 mm in diameter) was placed into each well of 24-well culture plate. Mouse macrophages were resuspended in supplemented DMEM media containing 10% heat inactivated fetal bovine serum (v/v), 100 U/mL penicillin and 100 μg/mL streptomycin and seeded into each well at a cell density of 1×10^5 cells per 500 μL. Macrophages were allowed to attach overnight and the non-adherent cells were removed by gentle washing twice with unsupplemented DMEM media. […] Non-internalized promastigotes were removed by washing with unsupplemented DMEM media for two times. Infected macrophages were further incubated in 500 μL supplemented DMEM media in the presence or absence of flavonoid dimers or known antileishmanials for 72 hrs at 37° C. After incubation, the cover slips were stained with Giemsa and the amastigotes inside each macrophage (100 macrophages per treatment) were counted under microscope. The percentage of macrophages infected and number of amastigotes per 100 macrophages was enumerated.
The % of infected macrophage and the number of amastigotes per 100 macrophages were counted by staining with Giemsa.

[12] = target: Pgp (LCC6MDR cells) (Homo sapiens, UniProt P08183); assay: Cell proliferation assay: Pgp-modulating activity, reversal of anticancer drug resistance in LCC6MDR cells; settings: for RF (Relative Fold), cpd at 0.5 μM: RF = (IC50 without modulator)/(IC50 with 0.5 μM modulator), paclitaxel; for RF (Relative Fold), cpd at 0.5 μM / EC50: LCC6MDR; for EC50: EC50 of compounds for reversing anticancer drug resistance (nM), Paclitaxel; for Therapeutic index: IC50 of compounds for L929/EC50 of compounds for lowering paclitaxel drug resistance
Experimental: Cell Proliferation Assay. 6,000 cells of LCC6 or LCC6MDR and anticancer drugs (paclitaxel, vinblastine, vincristine, doxorubicin and mitoxantrone) were mixed with or without modulators to a final volume of 200 μL in each well of 96-well plates. […] The plates were then incubated for 5 days at 37° C. […] IC50 values were calculated from the dose-response curves of MTS assays (Prism 4.0).

[13] = mouse, LCC6MDR and L929 cell lines

Pgp (LCC6MDR cells), sequence (P08183 whole entry): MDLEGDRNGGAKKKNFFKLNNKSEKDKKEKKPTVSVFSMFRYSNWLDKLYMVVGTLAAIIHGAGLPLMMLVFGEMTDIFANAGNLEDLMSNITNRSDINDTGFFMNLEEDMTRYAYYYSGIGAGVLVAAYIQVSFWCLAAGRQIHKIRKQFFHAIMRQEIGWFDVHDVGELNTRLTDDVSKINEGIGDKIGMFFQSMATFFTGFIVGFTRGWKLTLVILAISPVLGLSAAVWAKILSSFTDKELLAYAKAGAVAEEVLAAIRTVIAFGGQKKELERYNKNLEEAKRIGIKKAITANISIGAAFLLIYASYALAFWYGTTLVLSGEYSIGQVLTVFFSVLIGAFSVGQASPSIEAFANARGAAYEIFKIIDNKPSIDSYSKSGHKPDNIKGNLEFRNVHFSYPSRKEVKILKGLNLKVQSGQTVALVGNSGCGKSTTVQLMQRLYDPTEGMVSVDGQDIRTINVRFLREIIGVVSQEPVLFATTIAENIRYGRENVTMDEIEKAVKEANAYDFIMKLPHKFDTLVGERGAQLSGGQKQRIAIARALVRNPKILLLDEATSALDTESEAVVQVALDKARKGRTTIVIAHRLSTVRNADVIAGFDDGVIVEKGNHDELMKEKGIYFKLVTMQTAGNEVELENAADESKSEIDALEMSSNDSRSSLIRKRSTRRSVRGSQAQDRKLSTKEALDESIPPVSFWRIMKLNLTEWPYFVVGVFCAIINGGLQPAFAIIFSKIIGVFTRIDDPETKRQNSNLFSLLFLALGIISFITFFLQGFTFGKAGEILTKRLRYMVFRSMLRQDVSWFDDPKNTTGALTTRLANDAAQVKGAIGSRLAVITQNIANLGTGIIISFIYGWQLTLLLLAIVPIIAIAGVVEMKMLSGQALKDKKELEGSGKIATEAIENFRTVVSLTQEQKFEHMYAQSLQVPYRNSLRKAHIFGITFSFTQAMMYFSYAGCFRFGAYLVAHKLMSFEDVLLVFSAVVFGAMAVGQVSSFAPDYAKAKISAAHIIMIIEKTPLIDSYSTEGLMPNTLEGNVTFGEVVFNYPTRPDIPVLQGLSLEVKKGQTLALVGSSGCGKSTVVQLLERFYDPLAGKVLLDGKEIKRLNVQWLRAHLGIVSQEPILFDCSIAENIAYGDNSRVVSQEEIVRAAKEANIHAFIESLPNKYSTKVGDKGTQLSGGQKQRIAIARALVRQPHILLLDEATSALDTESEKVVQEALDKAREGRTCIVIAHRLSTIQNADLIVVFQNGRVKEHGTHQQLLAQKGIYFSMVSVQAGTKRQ

Compound: O=c1cc(-c2ccc(OCCOCCN(CCOCCOc3ccc(-c4cc(=O)c5ccccc5o4)cc3)Cc3cc(F)c(F)c(F)c3)cc2)oc2ccccc12 [Compound 39, 1,13-Bis[4′-(4H-chromen-4-on-2-yl)phenyl]-7-(3,4,5-trifluorobenzyl)-1,4,10,13-tetraoxa-7-azamidecane]
IC50 at 72 h [1]: > 100 µM
IC50 at 72 h [2]: > 75 µM
IC50 at 72 h [3]: > 100 µM
IC50 at 72 h [4, 13]: > 100 µM

Compound: C[C@@H]1[C@H](O)[C@@H](C)/C=C/C=C/C=C/C=C/C=C/C=C/C=C/[C@H](O[C@@H]2O[C@H](C)[C@@H](O)[C@H](N)[C@@H]2O)C[C@@H]2O[C@](O)(C[C@@H](O)C[C@@H](O)[C@H](O)CC[C@@H](O)C[C@@H](O)CC(=O)O[C@H]1C)C[C@H](O)[C@H]2C(=O)O [Amphotericin B, amphotericin B, reference compound]
IC50 ([5]; 3 days at 27° C., MTS): 0.09 ± 0.02 µM
IC50 ([6]; 3 days at 27° C., MTS): 0.095 ± 0.02 µM
IC50 [7]: 0.051 µM
IC50 ([8]; 3 days at 27° C., MTS): 0.34 ± 0.06 µM
IC50 ([9]; 72 hrs): 12 µM
IC50 [10]: 7.4 µM
IC50 [11]: 0.062 µM

Compound: COc1cccc2oc(-c3ccc(OCCOCCN(CCOCCOc4ccc(-c5cc(=O)c6c(OC)cccc6o5)cc4)C(=O)OC(C)(C)C)cc3)cc(=O)c12 [Compound 16d, 1,13-Bis[4′-((5-methoxy)-4H-chromen-4-on-2-yl)phenyl]-7-(tert-butyloxycarbonyl)-1,4,10,13-tetraoxa-7-azamidecane]
IC50 at 72 h [1]: 5.4 ± 0.5 µM
IC50 at 72 h [2]: 4.6 ± 0.2 µM
IC50 at 72 h [4]: < 8 µM
RF (Relative Fold), cpd at 0.5 μM [12]: (14.9)

Compound: O=C1c2ccccc2C(=O)N1CCN(CCOCCOc1ccc(-c2cc(=O)c3ccccc3o2)cc1)CCOCCOc1ccc(-c2cc(=O)c3ccccc3o2)cc1 [Compound 23c, 1,13-Bis[4′-(4H-chromen-4-on-2-yl)phenyl]-7-[2-(1,3-dioxo-1,3-dihydro-2H-isoindol-2-yl)ethyl]-1,4,10,13-tetraoxa-7-azamidecane]
IC50 at 72 h [1]: 4.9 ± 0.1 µM
IC50 at 72 h [2]: 8.6 ± 3.4 µM
IC50 at 72 h [3]: 17 ± 4.3 µM
IC50 at 72 h [4, 13]: 4.9 to 8.6 µM
RF (Relative Fold), cpd at 0.5 μM [12]: (9.6)

melting point: 91 to 93 °C
EC50 [12]: 258 ± 103 nM
Compound: O=c1cc(-c2ccc(OCCOCCN(CCOCCOc3ccc(-c4cc(=O)c5ccccc5o4)cc3)Cc3cccc(F)c3)cc2)oc2ccccc12 [Compound 37, 1,13-Bis[4′-(4H-chromen-4-on-2-yl)phenyl]-7-(3-fluorobenzyl)-1,4,10,13-tetraoxa-7-azamidecane]
IC50 at 72 h [1]: > 100 µM
IC50 at 72 h [2]: > 100 µM
IC50 at 72 h [3]: > 87 µM
IC50 at 72 h [4, 13]: > 100 µM
Therapeutic index [12]: >337.2

melting point: 82 to 84 °C
EC50 [12]: 179 ± 44 nM
Compound: O=c1cc(-c2ccc(OCCOCCN(CCOCCOc3ccc(-c4cc(=O)c5ccccc5o4)cc3)Cc3ccccc3F)cc2)oc2ccccc12 [Compound 36, 1,13-Bis[4′-(4H-chromen-4-on-2-yl)phenyl]-7-(2-fluorobenzyl)-1,4,10,13-tetraoxa-7-azamidecane]
IC50 at 72 h [1]: > 100 µM
IC50 at 72 h [2]: > 100 µM
IC50 at 72 h [3]: > 100 µM
IC50 at 72 h [4, 13]: > 100 µM
Therapeutic index [12]: >558.7

Compound: O=c1cc(-c2ccc(OCCOCCN(CCOCCOc3ccc(-c4cc(=O)c5ccccc5o4)cc3)Cc3ccc([N+](=O)[O-])cc3)cc2)oc2ccccc12 [Compound 19, 1,13-Bis[4′-(4H-chromen-4-on-2-yl)phenyl]-N-(4-nitrobenzyl)-1,4,10,13-tetraoxa-7-azamidecane]
IC50 at 72 h [1]: > 90 µM
IC50 at 72 h [2]: 86.8 ± 1.8 µM
IC50 at 72 h [3]: 88 ± 6.1 µM
IC50 at 72 h [4, 13]: > 90 µM
IC50 ([5]; Leishmania donovani, 72 h): > 100 µM
IC50 ([6]; Leishmania donovani, 72 h): > 100 µM
IC50 ([8]; Leishmania major, 72 h): > 100 µM
IC50 ([9]; Mus musculus, RAW264.7, 72 h): 70.3 ± 9.7 µM
EC50 [12]: 189 ± 1 nM
Therapeutic index [12]: 465.6
